# Key:
# Conditions in all cases: 72 h
# U2OS [1] = test: drug sensitivity score (DSS) for viability; higher = more toxic; extreme values may be limits of the assay
# Calu-3 [2] = test: as above
# HepG2 [3] = test: as above
# Caco-2 [4] = test: as above
# U2OS [5] = test: relative viability EC50 (midpoint between 100% and the lowest measured viability); higher = less toxic
# Calu-3 [6] = test: as above
# HepG2 [7] = test: as above
# Caco-2 [8] = test: as above
# U2OS [9] = test: cell viability relative to DMSO; higher = less toxic
# Calu-3 [10] = test: as above
# HepG2 [11] = test: as above
# Caco-2 [12] = test: as above
# Vero E6 [13] = test: drug sensitivity score (DSS) for viability; higher = more toxic; extreme values may be limits of the assay
# Vero E6 [14] = test: relative viability EC50 (midpoint between 100% and the lowest measured viability); higher = less toxic
# Vero E6 [15] = test: cell viability relative to DMSO; higher = less toxic
SMILES,drug sensitivity score (U2OS [1]),drug sensitivity score (Calu-3 [2]),drug sensitivity score (HepG2 [3]),drug sensitivity score (Caco-2 [4]),relative viability EC50 (U2OS [5]) [µM],relative viability EC50 (Calu-3 [6]) [µM],relative viability EC50 (HepG2 [7]) [µM],relative viability EC50 (Caco-2 [8]) [µM],cell viability (U2OS [9]; 1 nM) [%],cell viability (U2OS [9]; 10 nM) [%],cell viability (U2OS [9]; 100 nM) [%],cell viability (U2OS [9]; 1000 nM) [%],cell viability (U2OS [9]; 10000 nM) [%],cell viability (Calu-3 [10]; 1 nM) [%],cell viability (Calu-3 [10]; 10 nM) [%],cell viability (Calu-3 [10]; 100 nM) [%],cell viability (Calu-3 [10]; 1000 nM) [%],cell viability (Calu-3 [10]; 10000 nM) [%],cell viability (HepG2 [11]; 1 nM) [%],cell viability (HepG2 [11]; 10 nM) [%],cell viability (HepG2 [11]; 100 nM) [%],cell viability (HepG2 [11]; 1000 nM) [%],cell viability (HepG2 [11]; 10000 nM) [%],cell viability (Caco-2 [12]; 1 nM) [%],cell viability (Caco-2 [12]; 10 nM) [%],cell viability (Caco-2 [12]; 100 nM) [%],cell viability (Caco-2 [12]; 1000 nM) [%],cell viability (Caco-2 [12]; 10000 nM) [%],drug sensitivity score (Vero E6 [13]),relative viability EC50 (Vero E6 [14]) [µM],cell viability (Vero E6 [15]; 1 nM) [%],cell viability (Vero E6 [15]; 10 nM) [%],cell viability (Vero E6 [15]; 100 nM) [%],cell viability (Vero E6 [15]; 1000 nM) [%],cell viability (Vero E6 [15]; 10000 nM) [%]
Cc1nnc2ccc(-c3cccc(C(F)(F)F)c3)nn12,0,0,0,0.2,> 10,> 10,> 10,> 10,99.1,98.8,94.3,99.4,94.5,99.5,111,95,101,91.2,107,102,107,90.4,108,92.5,97.3,107,97.6,87.9,,,,,,,
NS(=O)(=O)NCc1csc2ccccc12,0,0,0,0,> 10,> 10,> 10,> 10,102,106,96.4,104,99.8,90.7,93.4,94.8,103,95.4,109,97,111,98.7,112,84.1,95.7,96.2,94.3,87.3,,,,,,,
CC(=O)N[C@H]1[C@H]([C@H](O)[C@H](O)CO)OC(O)(C(=O)O)C[C@@H]1O (mixture of isomers) [aceneuramic-acid],,0,2.5,0,,> 10,,> 10,,,,,,113,99.6,99.2,97.1,90.4,94.6,90.1,99.9,67.9,86.1,106,99,85.8,99.3,93.6,0,> 10,102,97.4,101,93.7,98
CCCCCCCCCCCCCCCCO [1-hexadecanol],0,0,,0,> 10,> 10,,> 10,97.8,100,97,97.3,92.7,94,95.5,102,95.5,97.3,,,,,,107,97.4,87.3,96.6,95.1,0,> 10,99.7,97.3,96,95.9,102
Cc1[nH]c2ccc(O)cc2c1CCN [2-methyl-5-hydroxytryptamine],0,0,,0,> 10,> 10,,> 10,101,101,97.3,106,101,109,109,102,101,99.3,,,,,,104,105,98.3,102,102,0,> 10,95,96.5,98.4,96.6,94.9
C[C@@H]1C[C@H]2[C@@H]3CCC4=CC(=O)C=C[C@]4(C)[C@@]3(F)[C@@H](O)C[C@]2(C)[C@@]1(O)C(=O)COP(=O)(O)O [DEXAMETHASONE SODIUM PHOSPHATE],0,0,0,0,> 10,> 10,> 10,> 10,99.8,98.8,97.7,95.8,95.7,106,107,89.9,105,90,111,108,100,97.8,93.6,95.9,88,99.7,96.2,97.5,,,,,,,
C[C@H](N)C(=O)O [L-alanine],0,0.2,,0,> 10,> 10,,> 10,94.5,102,104,105,96.3,102,94.3,99.6,106,84.2,,,,,,102,96.6,99.4,106,105,0,> 10,104,103,106,98.9,104
CN(C)CCOc1cc(-c2cn[nH]c2)ccc1NC(=O)C1COc2ccccc2O1 (stereo unspecified) [SR-3677],0.8,0,1.1,0,> 10,> 10,> 10,> 10,99.8,101,95.6,98.6,79.6,102,93.4,99.4,148,134,99.3,108,101,86,88.4,100,95.6,105,105,94.9,3.3,,96.5,95.9,95.7,81.4,68.8
COc1cc2ncnc(Nc3ccc(O)c(Br)c3)c2cc1OC [WHI-P154],0.4,7.2,2.7,3.4,> 10,1.29,,,103,101,99.5,93.1,86.3,106,103,94.3,72.6,28.6,108,102,101,89.7,70,95.8,96.6,89.8,83.6,68.8,8.2,0.642,101,98.4,82.8,68,35.6
O=C1c2ccccc2C(=O)c2ccccc21 [anthraquinone],0,0,0,,> 10,> 10,> 10,,105,99.7,103,99.2,105,94.9,97.4,95.8,88,98.2,95.2,106,96.2,94.2,92.6,,,,,,0,> 10,105,106,99.8,104,101
CCOc1nc2cccc(C(=O)OCc3oc(=O)oc3C)c2n1Cc1ccc(-c2ccccc2-c2noc(=O)[nH]2)cc1 [azilsartan-medoxomil],0,0,,0.1,> 10,> 10,,> 10,98.7,101,94.7,97.3,92.8,104,102,96.3,101,93.1,,,,,,107,86.4,83.3,107,85.1,0,> 10,113,107,107,99.4,101
O=C(CNC(=O)c1ccc(Cl)cc1)NO [benurestat],0,0,0,0,> 10,> 10,> 10,> 10,96.8,104,97.5,104,95.1,107,104,103,103,99.3,110,108,104,101,95.8,98.5,98.5,97.4,98.5,98.1,,,,,,,
N[C@@H]1CCCCN(c2c(F)cc3c(=O)c(C(=O)O)cn(C4CC4)c3c2Cl)C1 [besifloxacin],0,0,0,0,> 10,> 10,> 10,> 10,98.2,99.5,95.6,102,98.9,100,97.3,100,103,107,102,92.2,108,113,97.8,97.1,98.4,100,104,93.5,,,,,,,
COc1ccccc1Oc1c(NS(=O)(=O)c2ccc(C(C)(C)C)cc2)nc(-c2ncccn2)nc1OCCO [bosentan],0,0,,0.9,> 10,> 10,,> 10,98,102,98,99.9,91,102,94.2,99.1,114,102,,,,,,106,98.4,103,96.6,81.1,0.2,> 10,95.1,100,94.3,93.9,85.3
N#Cc1c(N)nc(SCc2csc(-c3ccc(Cl)cc3)n2)c(C#N)c1-c1ccc(OCCO)cc1 [capadenoson],0.6,0,0,0.8,> 10,> 10,> 10,,99.2,95.2,101,100,79.3,98,102,104,104,95.6,89,108,95.3,105,107,102,94.6,98.8,104,74.8,0,> 10,93,98.5,95.6,102,102

# From the supplement of paper PMC13380429
